Laboratory results as given in US20050107293A1, “Protein modification and maintenance molecules” (priority 2001, published 2005).

What was measured:
[1] = greater than progesterone; cited from earlier work
liver C3A cells = test: Microarray analysis of SEQ ID NO:49 expression in steroid-treated C3A cells; format: cell-based, human; settings: for differential expression of SEQ ID NO:49: liver C3A cells treated with one steroid, microarray
Description: The human C3A cell line is a clonal derivative of HepG2/C3 and has been established as an in vitro model of the mature human liver (Mickelson et al. (1995) Hepatology 22:866-875; Nagendra et al. (1997) Am J Physiol 272:G408-G416). […] These experiments indicate that SEQ ID NO:49 is useful in diagnostic assays for liver diseases and as a potential biological marker and therapeutic agent in the treatment of liver diseases and disorders.

C3A cells = test: Microarray analysis of SEQ ID NO:59 expression in C3A cells treated with progesterone or budenoside; format: cell-based, human; settings: early confluent C3A cells, 10 μM, at each time point (1, 3, and 6 hours), versus untreated C3A cells
Description: The human C3A cell line is a clonal derivative of HepG2/C3 (hepatoma cell line, isolated from a person with liver tumor), which was selected for strong contact inhibition of growth. The use of a clonal population enhances the reproducibility of the cells. C3A cells have many characteristics of primary human hepatocytes in culture: i) expression of insulin receptor and insulin-like growth factor II receptor; ii) secretion of a high ratio of serum albumin compared with α-fetoprotein iii) conversion of ammonia to urea and glutamine; iv) metabolism of aromatic amino acids; and v) proliferation in glucose-free and insulin-free medium. The C3A cell line is now well established as an in vitro model of the mature human liver (Mickelson et al. (1995) Hepatology 22:866-875; Nagendra et al. (1997) Am J Physiol 272:G408-G416). Early Confluent C3A cells were treated with progesterone or budenoside at 1, 10, and 100 μM for 1, 3, and 6 hours. The treated cells were compared to untreated early confluent C3A cells. […] Therefore, SEQ ID NO:59 may be useful in monitoring of, and diagnostic assays for steroid hormone-induced responses.

Compound	pharmacological activity relative to progesterone [1]	decrease in expression of SEQ ID NO:5 (liver C3A cells; early confluent C3A cells treated for 1, 3, or 6 hours, at a minimum of two out of the three time points)	differential expression of SEQ ID NO:49 (liver C3A cells)	expression of SEQ ID NO:59 (C3A cells)
6α-methyl-17-hydroxyprogesterone [Medroxyprogesterone]	about 15 times	–	–	–
C[C@H]1C[C@H]2[C@@H]3CCC4=CC(=O)C=C[C@]4(C)[C@@]3(Cl)[C@@H](O)C[C@]2(C)[C@@]1(O)C(=O)CO [beclomethasone]	–	at least a two-fold decrease	differential expression	–
CC(=O)[C@H]1CC[C@H]2[C@@H]3CCC4=CC(=O)CC[C@]4(C)[C@H]3CC[C@]12C [progesterone]	–	–	differential expression	decreased by at least two-fold
